Assay results taken from patent US10087178B2, “Substituted spiropyrido[1,2-a]pyrazine derivative and medicinal use thereof as HIV integrase inhibitor” (priority 2012, dated 2018).
Counter-ions that a name gives are not always drawn.

test system: HIV-1 NL4-3 strain; assay: Evaluation of antiviral activity: acute infection system of MT-4 cell with HIV-1 NL4-3 strain; format: cell-based; settings: Human immunodeficiency virus 1, NL43, MT4, 120 h, MT-4 cells infected with HIV-1 NL4-3 strain (MOI 0.05), cultured 5 days, Cell Titer-Glo; read-out: antiviral activity (EC50)

In order of falling EC50:
1. CNC(=O)[C@H]1C[C@]2(CN(C(C)C)C(=O)c3c(O)c(=O)c(C(=O)NCc4ccc(F)cc4F)cn32)C1 [Example S30, N^7′-(2,4-difluorobenzyl)-9′-hydroxy-2′-isopropyl-N^3-methyl-1′,8′-dioxo-1′,2′,3′,8′-tetrahydrospiro[cyclobutane-1,4′-pyrido[1,2-a]pyrazine]- cis-3,7′-dicarboxamide hydrochloride]  170 nM
2. CC(C)N1C[C@]2(C[C@H](OS(C)(=O)=O)C2)n2cc(C(=O)NCc3ccc(F)cc3F)c(=O)c(O)c2C1=O [Example S35, 7′-(2,4-difluorobenzylcarbamoyl)-9′-hydroxy-2′-isopropyl-1′,8′-dioxo-1′,2′,3′,8′-tetrahydrospiro[cyclobutane-1,4′-pyrido[1,2-a]pyrazine]- cis-3-yl methanesulfonate hydrochloride]  7.3 nM
3. CCN1C(=O)c2c(O)c(=O)c(C(=O)NCc3cccc(Cl)c3F)cn2C[C@]12C[C@@H](CO)C2 [Example S58, N-(3-chloro-2-fluorobenzyl)-2′-ethyl-9′-hydroxy-trans-3-(hydroxymethyl)-1′,8′-dioxo-1′,2′,4′,8′-tetrahydrospiro[cyclobutane-1,3′-pyrido[1,2-a]pyrazine]-7′-carboxamide hydrochloride]  6.8 nM
4. CC(C)O[C@H]1C[C@@]2(CN(C(C)C)C(=O)c3c(O)c(=O)c(C(=O)NCc4ccc(F)cc4F)cn32)C1 [Example S32, N-(2,4-difluorobenzyl)-9′-hydroxy-trans-3-isopropoxy-2′-isopropyl-1′,8′-dioxo-1′,2′,3′,8′-tetrahydrospiro[cyclobutane-1,4′-pyrido[1,2-a]pyrazine]-7′-carboxamide hydrochloride]  6.6 nM
5. CO[C@H]1C[C@@]2(Cn3cc(C(=O)NCc4cccc(Cl)c4F)c(=O)c(O)c3C(=O)N2C)C1 [Example S62, N-(3-chloro-2-fluorobenzyl)-9′-hydroxy-trans-3-methoxy-2′-methyl-1′,8′-dioxo-1′,2′,4′,8′-tetrahydrospiro[cyclobutane-1,3′-pyrido[1,2-a]pyrazine]-7′-carboxamide hydrochloride]  4.6 nM
6. CCO[C@H]1C[C@@]2(CN(C)C(=O)c3c(O)c(=O)c(C(=O)NCc4cccc(Cl)c4F)cn32)C1 [Example S28, N-(3-chloro-2-fluorobenzyl)- trans-3-ethoxy-9′-hydroxy-2′-methyl-1′,8′-dioxo-1′,2′,3′,8′-tetrahydrospiro[cyclobutane-1,4′-pyrido[1,2-a]pyrazine]-7′-carboxamide hydrochloride]  3.6 nM
7. CN(C)C(=O)[C@@H]1C[C@]12CN(C1CC1)C(=O)c1c(O)c(=O)c(C(=O)NCc3cccc(Cl)c3F)cn12 [Example T33, (1R,2R)-N^7′-(3-chloro-2-fluorobenzyl)-2′-cyclopropyl-9′-hydroxy-N^2,N^2-dimethyl-1′,8′-dioxo-1′,2′,3′,8′-tetrahydrospiro[cyclopropane-1,4′-pyrido[1,2-a]pyrazine]-2,7′-dicarboxamide]  3.3 nM
8. CC(C)O[C@H]1C[C@@]2(CN(C)C(=O)c3c(O)c(=O)c(C(=O)NCc4cccc(Cl)c4F)cn32)C1 [Example S40, N-(3-chloro-2-fluorobenzyl)-9′-hydroxy-trans-3-isopropoxy-2′-methyl-1′-8′-dioxo-1′,2′,3′,8′-tetrahydrospiro[cyclobutane-1,4′-pyrido[1,2-a]pyrazine]-7′-carboxamide hydrochloride]  2.3 nM
9. CCC(=O)Oc1c2n(cc(C(=O)NCc3cccc(Cl)c3F)c1=O)[C@]1(CN(C)C2=O)C[C@H](COC)C1 [Example S67, 7′-(3-chloro-2-fluorobenzylcarbamoyl)-cis-3-(methoxymethyl)-2′-methyl-1′,8′-dioxo-1′,2′,3′,8′-tetrahydrospiro[cyclobutane-1,4′-pyrido[1,2-a]pyrazin]-9′-yl propionate]  0.9 nM

same assay, conditions: Human immunodeficiency virus 1, NL43, MT4, 120 h, antiviral activity; MT-4 cells infected with HIV-1 NL4-3 (MOI 0.05), 5 days culture, Cell Titer-Glo luminescence; read-out: EC50

In order of falling EC50:
1. CCN1C[C@]2(C[C@H](O)C2)n2cc(C(=O)NCc3ccc(F)cc3F)c(=O)c(O)c2C1=O [Example S18, N-(2,4-difluorobenzyl)-2′-ethyl-cis-3,9′-dihydroxy-1′,8′-dioxo-1′,2′,3′,8′-tetrahydrospiro[cyclobutane-1,4′-pyrido[1,2-a]pyrazine]-7′-carboxamide hydrobromide]  16 nM
2. CCN1C[C@]2(C[C@H](OCc3ccccc3)C2)n2cc(C(=O)NCc3ccc(F)cc3F)c(=O)c(O)c2C1=O [Example S16, cis-3-(benzyloxy)-N-(2,4-difluorobenzyl)-2′-ethyl-9′-hydroxy-1′,8′-dioxo-1′,2′,3′,8′-tetrahydrospiro[cyclobutane-1,4′-pyrido[1,2-a]pyrazine]-7′-carboxamide hydrochloride]  7.8 nM
3. CCN1C[C@]2(C[C@@H](OC)C2)n2cc(C(=O)NCc3ccc(F)cc3F)c(=O)c(O)c2C1=O [Example S19, N-(2,4-difluorobenzyl)-2′-ethyl-9′-hydroxy-trans-3-methoxy-1′,8′-dioxo-1′,2′,3′,8′-tetrahydrospiro[cyclobutane-1,4′-pyrido[1,2-a]pyrazine]-7′-carboxamide hydrochloride]  4.8 nM

same assay, conditions: Human immunodeficiency virus 1, NL43, MT4, 120 h, read-out: antiviral activity (EC50), MT-4 cells infected with HIV-1 NL4-3 strain (MOI 0.05), cultured 5 days, Cell Titer-Glo

In order of rising EC50:
1. CC(C)N1C[C@@]2(C[C@@H]2C(=O)N(C)C)n2cc(C(=O)NCc3cccc(Cl)c3F)c(=O)c(O)c2C1=O [Example T13, (1S,2S)-N^7′-(3-chloro-2-fluorobenzyl)-9′-hydroxy-2′-isopropyl-N^2,N^2-dimethyl-1′,8′-dioxo-1′,2′,3′,8′-tetrahydrospiro[cyclopropane-1,4′-pyrido[1,2-a]pyrazine]-2,7′-dicarboxamide hydrochloride]  3.4 nM
2. COC[C@@H]1C[C@]12CN(C(C)C)C(=O)c1c(O)c(=O)c(C(=O)NCc3cccc(Cl)c3F)cn12 [Example T6, (1R,2R)-N-(3-chloro-2-fluorobenzyl)-9′-hydroxy-2′-isopropyl-2-(methoxymethyl)-1′,8′-dioxo-1′,2′,3′,8′-tetrahydrospiro[cyclopropane-1,4′-pyrido[1,2-a]pyrazine]-7′-carboxamide hydrochloride]  3.8 nM
3. CC(C)N1C[C@@]2(C[C@H]2CO)n2cc(C(=O)NCc3cccc(Cl)c3F)c(=O)c(O)c2C1=O [Example T28, (1S,2R)-N-(3-chloro-2-fluorobenzyl)-9′-hydroxy-2-(hydroxymethyl)-2′-isopropyl-1′,8′-dioxo-1′,2′,3′,8′-tetrahydrospiro[cyclopropane-1,4′-pyrido[1,2-a]pyrazine]-7′-carboxamide hydrochloride]  5.2 nM
4. CN1C[C@@]2(C[C@@H]2CO)n2cc(C(=O)NCc3ccc(F)cc3F)c(=O)c(O)c2C1=O [Example T4, (1S,2S)-N-(2,4-difluorobenzyl)-9′-hydroxy-2-(hydroxymethyl)-2′-methyl-1′,8′-dioxo-1′,2′,3′,8′-tetrahydrospiro[cyclopropane-1,4′-pyrido[1,2-a]pyrazine]-7′-carboxamide hydrochloride]  30 nM

same assay, conditions: read-out: EC50

CO[C@H]1C[C@]2(CN(C)C(=O)c3c(O)c(=O)c(C(=O)NCc4cccc(Cl)c4F)cn32)C1 [Example 1, N-(3-chloro-2-fluorobenzyl)-9′-hydroxy-cis-3-methoxy-2′-methyl-1′,8′-dioxo-1′,2′,3′,8′-tetrahydrospiro[cyclobutane-1,4′-pyrido[1,2-a]pyrazine]-7′-carboxamide hydrochloride] was tested, and the EC50 was 3.1 nM.
